According to paper PMC5951806, “Rapid labelling and covalent inhibition of intracellular native proteins using ligand-directed N-acyl-N-alkyl sulfonamide” (Nature Communications, 2018):

Tests used:
Assay in all cases: TMT LC-MSMS of 11-labelled proteins
Type in all cases: cell-based
[1] = target: Transferrin receptor protein 1 (TFRC) (Homo sapiens, UniProt P02786)
[2] = target: T1, Carnitine O-palmitoyltransferase 1, liver isoform (CPT1A) (Homo sapiens, UniProt P50416)
T1 sequence (P50416 1-773): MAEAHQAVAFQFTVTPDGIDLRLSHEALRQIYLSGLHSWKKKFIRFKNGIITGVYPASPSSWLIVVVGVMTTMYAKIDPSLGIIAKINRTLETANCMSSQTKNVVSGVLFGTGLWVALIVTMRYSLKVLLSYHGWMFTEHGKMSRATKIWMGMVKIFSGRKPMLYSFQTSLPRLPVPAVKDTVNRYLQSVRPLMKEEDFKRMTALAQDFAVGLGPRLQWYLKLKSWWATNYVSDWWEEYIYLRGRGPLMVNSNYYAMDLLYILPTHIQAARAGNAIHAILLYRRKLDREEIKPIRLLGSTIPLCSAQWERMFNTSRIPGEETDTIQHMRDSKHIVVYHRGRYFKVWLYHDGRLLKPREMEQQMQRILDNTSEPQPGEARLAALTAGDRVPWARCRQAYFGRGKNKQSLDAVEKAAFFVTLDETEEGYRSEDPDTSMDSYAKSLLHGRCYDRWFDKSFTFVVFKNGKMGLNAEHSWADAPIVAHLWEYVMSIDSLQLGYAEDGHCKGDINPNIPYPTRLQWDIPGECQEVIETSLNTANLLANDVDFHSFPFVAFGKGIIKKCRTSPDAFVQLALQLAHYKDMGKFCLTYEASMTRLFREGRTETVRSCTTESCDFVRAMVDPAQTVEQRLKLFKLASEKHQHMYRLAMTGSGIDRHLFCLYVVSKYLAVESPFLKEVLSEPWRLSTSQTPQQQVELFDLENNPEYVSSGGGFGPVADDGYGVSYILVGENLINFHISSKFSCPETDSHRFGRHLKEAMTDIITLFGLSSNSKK

[3] = target: Pyruvate kinase PKM (PKM) (Homo sapiens, UniProt P14618)
[4] = sheet Exp1, SKBR3 cells, 11 0.5 µM 3 h vs DMSO
[5] = sheet Exp1, SKBR3 cells, 11 0.5 µM 3 h vs with PU-H71 10 µM
[6] = sheet Merged, SKBR3 cells, 11 0.5 µM 3 h vs DMSO
[7] = sheet Merged, SKBR3 cells, 11 0.5 µM 3 h vs with PU-H71 10 µM

Chain of Transferrin receptor protein 1 (TFRC) (P02786 whole entry, canonical isoform): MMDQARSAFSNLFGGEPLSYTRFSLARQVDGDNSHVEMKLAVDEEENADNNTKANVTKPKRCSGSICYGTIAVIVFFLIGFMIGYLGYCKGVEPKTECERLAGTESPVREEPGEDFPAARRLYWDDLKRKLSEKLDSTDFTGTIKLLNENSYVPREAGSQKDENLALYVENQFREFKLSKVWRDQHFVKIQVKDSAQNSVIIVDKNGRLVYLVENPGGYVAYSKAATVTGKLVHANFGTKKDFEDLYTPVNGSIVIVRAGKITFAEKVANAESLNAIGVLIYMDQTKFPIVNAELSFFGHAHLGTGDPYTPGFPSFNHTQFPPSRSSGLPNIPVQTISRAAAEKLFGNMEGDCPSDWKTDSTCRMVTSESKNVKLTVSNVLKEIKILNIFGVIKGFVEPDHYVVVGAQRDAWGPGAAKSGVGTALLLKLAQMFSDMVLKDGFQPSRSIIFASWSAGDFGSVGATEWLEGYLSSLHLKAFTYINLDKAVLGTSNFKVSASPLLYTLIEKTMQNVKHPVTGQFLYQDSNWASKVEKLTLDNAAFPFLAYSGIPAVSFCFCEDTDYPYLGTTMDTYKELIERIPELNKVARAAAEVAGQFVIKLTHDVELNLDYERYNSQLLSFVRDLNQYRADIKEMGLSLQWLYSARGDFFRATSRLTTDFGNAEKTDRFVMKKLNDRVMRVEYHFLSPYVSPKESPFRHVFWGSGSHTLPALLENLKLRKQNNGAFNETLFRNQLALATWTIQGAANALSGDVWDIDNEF
Chain of Pyruvate kinase PKM (PKM) (P14618 whole entry): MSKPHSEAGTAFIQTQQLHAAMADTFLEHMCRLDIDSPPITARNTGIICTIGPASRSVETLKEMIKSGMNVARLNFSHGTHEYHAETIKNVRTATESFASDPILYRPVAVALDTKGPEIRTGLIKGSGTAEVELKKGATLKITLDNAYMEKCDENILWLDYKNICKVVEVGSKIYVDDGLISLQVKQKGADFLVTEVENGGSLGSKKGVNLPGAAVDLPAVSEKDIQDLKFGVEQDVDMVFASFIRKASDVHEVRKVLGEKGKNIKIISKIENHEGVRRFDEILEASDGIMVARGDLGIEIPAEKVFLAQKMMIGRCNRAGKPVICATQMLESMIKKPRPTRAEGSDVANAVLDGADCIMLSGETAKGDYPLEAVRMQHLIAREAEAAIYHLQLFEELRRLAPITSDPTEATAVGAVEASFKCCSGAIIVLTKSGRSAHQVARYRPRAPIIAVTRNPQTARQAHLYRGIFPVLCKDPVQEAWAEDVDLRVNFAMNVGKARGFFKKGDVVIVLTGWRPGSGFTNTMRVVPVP

## CC(=O)Oc1ccc2c(c1)Oc1cc(OC(C)=O)ccc1C21OC(=O)c2cc(C(=O)NCCOCCOCCNC(=O)CCCC(=O)N(CC#N)S(=O)(=O)c3ccc(C(=O)NCCCn4c(Sc5cc6c(cc5I)OCO6)nc5c(N)ncnc54)cc3)ccc21 [compound 11]
[1]; [4]
  Abundance Ratio: (11) / (DMSO): 1.5
[1]; [5]
  Abundance Ratio: (11) / (11 with PU-H71): 0.917
[1]; sheet Exp2, TFRC
  Abundance Ratio: (11) / (11 with PU-H71): 1.036
  Abundance Ratio: (11) / (DMSO): 2.96
  Abundances (Grouped): 11: 95.6
[1]; sheet Exp2, TFRC, with PU-H71
  Abundances (Grouped): 11 with PU-H71: 92.3
[1]; [6]
  Abundance Ratio: (11) / (DMSO): 2.107
[1]; [7]
  Abundance Ratio: (11) / (11 with PU-H71): 0.975
[2]; Exp3, CPT1A
  Abundance Ratio: (11) / (11 with PU-H71): 0.719
  Abundance Ratio: (11) / (DMSO): 1.338
  Abundances (Grouped): 11: 20.2
[2]; Exp3, CPT1A, with PU-H71
  Abundances (Grouped): 11 with PU-H71: 28.1
[2]; [4]
  Abundance Ratio: (11) / (DMSO): 2.506
[2]; [5]
  Abundance Ratio: (11) / (11 with PU-H71): 0.783
[2]; [6]
  Abundance Ratio: (11) / (DMSO): 1.461
[2]; [7]
  Abundance Ratio: (11) / (11 with PU-H71): 0.79
[3]; Exp3, PKM
  Abundance Ratio: (11) / (11 with PU-H71): 1.148
  Abundance Ratio: (11) / (DMSO): 2.441
  Abundances (Grouped): 11: 100.1
  Abundances (Grouped): 11 with PU-H71: 87.2
[3]; [4]
  Abundance Ratio: (11) / (DMSO): 3.506
[3]; [5]
  Abundance Ratio: (11) / (11 with PU-H71): 0.917
[3]; sheet Exp2, PKM
  Abundance Ratio: (11) / (11 with PU-H71): 0.916
  Abundance Ratio: (11) / (DMSO): 2.005
  Abundances (Grouped): 11: 121.5
  Abundances (Grouped): 11 with PU-H71: 132.6
[3]; [6]
  Abundance Ratio: (11) / (DMSO): 3.4
[3]; [7]
  Abundance Ratio: (11) / (11 with PU-H71): 0.922
